Laboratory results taken from ChEMBL document CHEMBL5678818, “Discovery of potent SOS1 inhibitors that block RAS activation via disruption of the RAS-SOS1 interaction” (Proc Natl Acad Sci U S A, 2019).

Assays:
[1] = biological target: Atypical kinase COQ8A, mitochondrial (Homo sapiens) (UniProt Q8NI60); test: Inhibition of ADCK3 (unknown origin) assessed as residual activity at 100 nM by KINOMEscan analysis relative to control
[2] = biological target: Macrophage colony-stimulating factor 1 receptor (Homo sapiens) (UniProt P07333); test: Inhibition of CSF1R (unknown origin) assessed as residual activity at 100 nM by KINOMEscan analysis relative to control
[3] = biological target: Citron Rho-interacting kinase (Homo sapiens) (UniProt O14578); test: Inhibition of CIT (unknown origin) assessed as residual activity at 100 nM by KINOMEscan analysis relative to control
[4] = biological target: T1, Homeodomain-interacting protein kinase 4 (Homo sapiens) (UniProt Q8NE63); test: Inhibition of HIPK4 (unknown origin) assessed as residual activity at 100 nM by KINOMEscan analysis relative to control
T1 sequence (whole entry): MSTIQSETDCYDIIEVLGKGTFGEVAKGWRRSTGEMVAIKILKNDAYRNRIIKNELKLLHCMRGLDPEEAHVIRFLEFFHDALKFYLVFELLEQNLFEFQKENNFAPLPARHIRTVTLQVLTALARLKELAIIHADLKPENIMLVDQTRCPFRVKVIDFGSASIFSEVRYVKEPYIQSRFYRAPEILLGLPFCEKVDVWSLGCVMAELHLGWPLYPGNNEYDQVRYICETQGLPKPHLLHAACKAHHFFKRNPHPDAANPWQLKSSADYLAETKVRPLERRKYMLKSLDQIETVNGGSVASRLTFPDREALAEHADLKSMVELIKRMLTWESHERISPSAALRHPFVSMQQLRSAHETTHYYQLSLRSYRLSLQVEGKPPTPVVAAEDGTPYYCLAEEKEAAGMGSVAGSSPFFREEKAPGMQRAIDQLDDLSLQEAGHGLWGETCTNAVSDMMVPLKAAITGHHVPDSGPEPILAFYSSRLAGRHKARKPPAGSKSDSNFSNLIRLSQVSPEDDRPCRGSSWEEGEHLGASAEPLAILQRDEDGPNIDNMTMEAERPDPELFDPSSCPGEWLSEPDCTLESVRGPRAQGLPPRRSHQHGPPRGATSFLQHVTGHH

[5] = biological target: T2, Mitogen-activated protein kinase kinase kinase 6 (Homo sapiens) (UniProt O95382); test: Inhibition of ASK2 (unknown origin) assessed as residual activity at 100 nM by KINOMEscan analysis relative to control
T2 sequence (whole entry): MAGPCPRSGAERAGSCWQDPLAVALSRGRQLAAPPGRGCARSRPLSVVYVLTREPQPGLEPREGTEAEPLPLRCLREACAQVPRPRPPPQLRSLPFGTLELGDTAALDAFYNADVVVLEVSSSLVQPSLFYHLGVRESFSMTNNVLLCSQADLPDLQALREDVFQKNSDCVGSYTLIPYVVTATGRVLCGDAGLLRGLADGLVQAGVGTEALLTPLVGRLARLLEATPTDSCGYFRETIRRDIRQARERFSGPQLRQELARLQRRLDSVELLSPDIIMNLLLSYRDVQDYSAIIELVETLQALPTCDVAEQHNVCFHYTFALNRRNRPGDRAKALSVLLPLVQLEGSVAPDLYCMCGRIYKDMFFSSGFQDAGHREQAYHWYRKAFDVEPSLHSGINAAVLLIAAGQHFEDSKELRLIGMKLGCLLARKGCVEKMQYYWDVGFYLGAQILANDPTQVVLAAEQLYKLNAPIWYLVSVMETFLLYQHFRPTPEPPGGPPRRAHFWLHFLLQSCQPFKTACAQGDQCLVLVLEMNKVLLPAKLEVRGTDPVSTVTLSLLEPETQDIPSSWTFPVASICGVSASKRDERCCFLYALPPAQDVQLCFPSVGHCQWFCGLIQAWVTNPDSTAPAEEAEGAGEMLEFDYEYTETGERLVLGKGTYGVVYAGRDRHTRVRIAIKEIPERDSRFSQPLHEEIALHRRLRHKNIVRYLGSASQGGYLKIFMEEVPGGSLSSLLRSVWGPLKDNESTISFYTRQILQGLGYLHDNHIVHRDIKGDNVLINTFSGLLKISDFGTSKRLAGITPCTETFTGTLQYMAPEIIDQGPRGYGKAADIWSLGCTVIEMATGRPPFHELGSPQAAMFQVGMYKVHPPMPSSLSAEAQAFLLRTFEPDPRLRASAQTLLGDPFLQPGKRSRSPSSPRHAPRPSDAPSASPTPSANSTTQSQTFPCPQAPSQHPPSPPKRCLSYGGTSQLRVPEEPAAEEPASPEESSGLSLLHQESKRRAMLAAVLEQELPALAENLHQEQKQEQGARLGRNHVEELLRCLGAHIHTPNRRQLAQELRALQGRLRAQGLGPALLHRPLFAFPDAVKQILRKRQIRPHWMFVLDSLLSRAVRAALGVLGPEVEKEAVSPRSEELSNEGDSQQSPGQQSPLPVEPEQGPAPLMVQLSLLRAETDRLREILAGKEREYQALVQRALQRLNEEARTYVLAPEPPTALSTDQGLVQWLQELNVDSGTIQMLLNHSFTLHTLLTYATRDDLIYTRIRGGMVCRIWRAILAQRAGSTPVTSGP

[6] = biological target: T3, NUAK family SNF1-like kinase 1 (Homo sapiens) (UniProt O60285); test: Inhibition of ARK5 (unknown origin) assessed as residual activity at 100 nM by KINOMEscan analysis relative to control
T3 sequence (whole entry): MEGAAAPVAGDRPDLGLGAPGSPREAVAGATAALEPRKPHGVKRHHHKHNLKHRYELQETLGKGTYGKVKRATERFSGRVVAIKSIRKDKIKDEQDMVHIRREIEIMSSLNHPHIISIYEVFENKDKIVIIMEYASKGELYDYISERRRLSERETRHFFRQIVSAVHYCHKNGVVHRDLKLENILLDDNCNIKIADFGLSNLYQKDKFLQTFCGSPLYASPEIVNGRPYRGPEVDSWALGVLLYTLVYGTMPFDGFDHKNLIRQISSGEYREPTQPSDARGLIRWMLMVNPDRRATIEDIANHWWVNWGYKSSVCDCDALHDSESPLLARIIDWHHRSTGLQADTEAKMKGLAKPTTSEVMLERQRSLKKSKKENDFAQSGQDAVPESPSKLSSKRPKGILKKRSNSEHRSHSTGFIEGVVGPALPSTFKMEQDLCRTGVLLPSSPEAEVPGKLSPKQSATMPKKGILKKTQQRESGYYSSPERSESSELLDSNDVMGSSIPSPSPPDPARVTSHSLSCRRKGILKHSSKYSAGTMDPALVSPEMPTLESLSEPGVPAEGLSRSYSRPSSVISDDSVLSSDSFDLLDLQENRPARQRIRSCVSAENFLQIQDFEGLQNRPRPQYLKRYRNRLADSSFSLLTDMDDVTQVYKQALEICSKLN

[7] = biological target: Fibroblast growth factor receptor 4 (Homo sapiens) (UniProt P22455); test: Inhibition of FGFR4 (unknown origin) assessed as residual activity at 100 nM by KINOMEscan analysis relative to control
Fibroblast growth factor receptor 4 (Homo sapiens), sequence (P22455 22-802 limits assumed): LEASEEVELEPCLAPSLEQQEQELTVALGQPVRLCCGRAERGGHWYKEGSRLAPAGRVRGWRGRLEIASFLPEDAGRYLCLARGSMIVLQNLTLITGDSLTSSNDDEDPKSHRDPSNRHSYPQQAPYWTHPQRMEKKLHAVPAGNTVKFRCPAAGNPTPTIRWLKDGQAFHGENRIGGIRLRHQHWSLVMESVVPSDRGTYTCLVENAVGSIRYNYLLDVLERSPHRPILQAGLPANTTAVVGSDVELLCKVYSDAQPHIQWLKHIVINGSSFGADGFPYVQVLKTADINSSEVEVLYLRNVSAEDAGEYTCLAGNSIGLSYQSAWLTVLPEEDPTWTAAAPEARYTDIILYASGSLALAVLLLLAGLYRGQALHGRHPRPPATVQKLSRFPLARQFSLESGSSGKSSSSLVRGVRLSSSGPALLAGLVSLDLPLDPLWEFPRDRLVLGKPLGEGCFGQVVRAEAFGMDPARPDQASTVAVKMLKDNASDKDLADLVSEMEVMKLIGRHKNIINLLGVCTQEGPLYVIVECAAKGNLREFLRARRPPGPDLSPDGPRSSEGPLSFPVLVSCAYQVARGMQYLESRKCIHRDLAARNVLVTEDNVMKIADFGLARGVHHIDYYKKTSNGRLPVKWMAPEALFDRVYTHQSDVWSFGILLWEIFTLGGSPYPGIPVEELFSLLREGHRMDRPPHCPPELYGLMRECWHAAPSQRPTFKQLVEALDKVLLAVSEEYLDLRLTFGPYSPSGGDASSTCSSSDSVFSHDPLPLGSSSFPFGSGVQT

Macrophage colony-stimulating factor 1 receptor (Homo sapiens), sequence (P07333 whole entry): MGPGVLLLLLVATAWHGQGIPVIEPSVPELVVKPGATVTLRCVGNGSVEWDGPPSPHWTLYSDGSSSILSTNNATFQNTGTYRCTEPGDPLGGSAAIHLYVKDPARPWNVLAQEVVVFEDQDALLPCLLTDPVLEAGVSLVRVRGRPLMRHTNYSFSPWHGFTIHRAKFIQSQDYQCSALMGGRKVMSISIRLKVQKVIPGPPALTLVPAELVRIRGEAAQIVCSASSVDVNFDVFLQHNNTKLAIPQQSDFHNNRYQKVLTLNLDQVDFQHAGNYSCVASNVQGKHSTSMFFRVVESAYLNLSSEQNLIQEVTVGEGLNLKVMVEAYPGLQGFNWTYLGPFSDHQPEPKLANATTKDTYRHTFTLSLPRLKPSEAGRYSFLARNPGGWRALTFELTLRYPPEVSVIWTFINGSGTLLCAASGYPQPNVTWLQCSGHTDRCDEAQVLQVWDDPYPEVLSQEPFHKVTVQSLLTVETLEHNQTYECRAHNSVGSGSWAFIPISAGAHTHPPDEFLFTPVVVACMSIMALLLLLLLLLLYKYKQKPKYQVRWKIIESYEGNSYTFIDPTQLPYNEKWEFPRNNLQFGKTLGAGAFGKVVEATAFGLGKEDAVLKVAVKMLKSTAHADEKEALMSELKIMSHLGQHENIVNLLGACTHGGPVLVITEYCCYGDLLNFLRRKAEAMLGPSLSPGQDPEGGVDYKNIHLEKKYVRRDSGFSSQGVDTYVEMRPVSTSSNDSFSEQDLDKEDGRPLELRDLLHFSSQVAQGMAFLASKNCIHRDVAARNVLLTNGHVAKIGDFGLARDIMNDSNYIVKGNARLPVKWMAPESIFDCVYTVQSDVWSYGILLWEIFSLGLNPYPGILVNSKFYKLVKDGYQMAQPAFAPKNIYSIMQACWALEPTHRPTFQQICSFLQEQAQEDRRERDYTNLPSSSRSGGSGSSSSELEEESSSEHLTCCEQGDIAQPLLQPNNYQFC
Atypical kinase COQ8A, mitochondrial (Homo sapiens), sequence (Q8NI60 163-647 limits assumed): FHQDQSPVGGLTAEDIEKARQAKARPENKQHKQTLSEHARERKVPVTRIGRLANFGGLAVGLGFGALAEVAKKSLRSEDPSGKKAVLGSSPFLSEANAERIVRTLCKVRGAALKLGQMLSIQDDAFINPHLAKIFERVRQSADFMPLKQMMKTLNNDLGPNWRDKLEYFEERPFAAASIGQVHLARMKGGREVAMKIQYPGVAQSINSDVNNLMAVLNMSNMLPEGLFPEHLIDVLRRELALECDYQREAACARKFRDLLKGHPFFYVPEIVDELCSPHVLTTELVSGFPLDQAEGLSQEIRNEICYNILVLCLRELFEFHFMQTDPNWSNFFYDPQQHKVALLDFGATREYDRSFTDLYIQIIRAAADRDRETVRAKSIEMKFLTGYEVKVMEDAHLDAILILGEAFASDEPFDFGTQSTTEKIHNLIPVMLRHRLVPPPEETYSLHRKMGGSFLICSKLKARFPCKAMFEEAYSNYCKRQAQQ
Citron Rho-interacting kinase (Homo sapiens), sequence (O14578 whole entry): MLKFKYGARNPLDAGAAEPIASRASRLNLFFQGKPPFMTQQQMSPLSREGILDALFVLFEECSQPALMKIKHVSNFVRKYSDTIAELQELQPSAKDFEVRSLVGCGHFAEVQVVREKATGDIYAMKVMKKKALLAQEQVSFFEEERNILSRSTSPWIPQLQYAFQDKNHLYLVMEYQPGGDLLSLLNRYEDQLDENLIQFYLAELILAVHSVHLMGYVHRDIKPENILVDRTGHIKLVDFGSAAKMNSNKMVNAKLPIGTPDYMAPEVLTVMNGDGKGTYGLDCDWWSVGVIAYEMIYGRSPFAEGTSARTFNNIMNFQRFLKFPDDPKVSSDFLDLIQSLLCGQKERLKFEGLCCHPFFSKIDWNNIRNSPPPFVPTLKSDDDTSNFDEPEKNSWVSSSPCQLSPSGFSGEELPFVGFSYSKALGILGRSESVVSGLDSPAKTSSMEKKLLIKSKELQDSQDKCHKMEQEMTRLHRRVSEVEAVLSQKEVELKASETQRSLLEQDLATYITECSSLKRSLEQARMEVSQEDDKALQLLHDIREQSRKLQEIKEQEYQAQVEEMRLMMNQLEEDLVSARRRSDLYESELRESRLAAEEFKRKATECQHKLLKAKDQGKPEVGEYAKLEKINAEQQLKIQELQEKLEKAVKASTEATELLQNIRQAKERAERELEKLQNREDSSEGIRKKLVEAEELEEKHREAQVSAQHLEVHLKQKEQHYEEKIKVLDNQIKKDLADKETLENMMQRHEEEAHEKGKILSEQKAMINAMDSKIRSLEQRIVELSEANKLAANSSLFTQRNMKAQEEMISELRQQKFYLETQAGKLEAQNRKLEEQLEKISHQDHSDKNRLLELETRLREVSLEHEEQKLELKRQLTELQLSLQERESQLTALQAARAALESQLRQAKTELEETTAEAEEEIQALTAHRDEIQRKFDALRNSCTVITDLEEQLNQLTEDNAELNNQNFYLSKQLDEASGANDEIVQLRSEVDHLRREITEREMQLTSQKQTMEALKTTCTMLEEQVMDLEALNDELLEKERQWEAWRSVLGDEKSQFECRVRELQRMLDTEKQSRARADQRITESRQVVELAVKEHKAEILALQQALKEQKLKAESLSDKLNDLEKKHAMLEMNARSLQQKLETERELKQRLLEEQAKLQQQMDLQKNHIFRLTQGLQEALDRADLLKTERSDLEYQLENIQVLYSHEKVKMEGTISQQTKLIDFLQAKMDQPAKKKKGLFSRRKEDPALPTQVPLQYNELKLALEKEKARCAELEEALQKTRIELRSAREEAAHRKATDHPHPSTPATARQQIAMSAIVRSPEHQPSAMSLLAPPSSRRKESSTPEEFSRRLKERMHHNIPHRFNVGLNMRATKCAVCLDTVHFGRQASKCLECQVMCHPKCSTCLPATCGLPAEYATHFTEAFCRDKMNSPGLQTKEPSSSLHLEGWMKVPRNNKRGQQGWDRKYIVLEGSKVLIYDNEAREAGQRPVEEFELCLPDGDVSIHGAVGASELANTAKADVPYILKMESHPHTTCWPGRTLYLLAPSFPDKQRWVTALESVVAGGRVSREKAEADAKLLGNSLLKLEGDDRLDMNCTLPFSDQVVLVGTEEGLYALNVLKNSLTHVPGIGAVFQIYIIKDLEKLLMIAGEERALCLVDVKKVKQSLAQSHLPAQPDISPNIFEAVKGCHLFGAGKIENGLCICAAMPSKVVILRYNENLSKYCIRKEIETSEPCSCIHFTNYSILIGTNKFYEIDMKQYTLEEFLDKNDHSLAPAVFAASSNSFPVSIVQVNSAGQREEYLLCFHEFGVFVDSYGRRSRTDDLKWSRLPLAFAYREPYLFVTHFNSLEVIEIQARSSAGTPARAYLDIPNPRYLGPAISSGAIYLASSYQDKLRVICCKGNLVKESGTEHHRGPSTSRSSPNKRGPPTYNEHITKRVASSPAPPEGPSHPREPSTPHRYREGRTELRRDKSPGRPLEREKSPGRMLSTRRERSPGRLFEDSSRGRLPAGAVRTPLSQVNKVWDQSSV

COc1cc2ncnc(N[C@H](C)c3cccc4ccccc34)c2cc1OC
Activity [1]: 64%
Activity [2]: 100%
Activity [3]: 83%
Activity [4]: 100%
Activity [5]: 71%
Activity [6]: 87%
Activity [7]: 76%
